Key:
[1] = target: T1, STAT6 (Homo sapiens, UniProt P42226); assay: Stat6 Degrader Assay (HiBiT based, HeLa LgBiT clone 4.14); type: cell-based; conditions: HeLa LgBiT clone 4.14 HiBiT-STAT6, 4-24 h incubation; values given for compounds with >80% Emax; geometric mean; read-out: STAT6 degradation DC50
T1 construct: These cells express endogenous STAT6; host or cells: HeLa LgBiT clone 4.14
T1 sequence (P42226 1-847): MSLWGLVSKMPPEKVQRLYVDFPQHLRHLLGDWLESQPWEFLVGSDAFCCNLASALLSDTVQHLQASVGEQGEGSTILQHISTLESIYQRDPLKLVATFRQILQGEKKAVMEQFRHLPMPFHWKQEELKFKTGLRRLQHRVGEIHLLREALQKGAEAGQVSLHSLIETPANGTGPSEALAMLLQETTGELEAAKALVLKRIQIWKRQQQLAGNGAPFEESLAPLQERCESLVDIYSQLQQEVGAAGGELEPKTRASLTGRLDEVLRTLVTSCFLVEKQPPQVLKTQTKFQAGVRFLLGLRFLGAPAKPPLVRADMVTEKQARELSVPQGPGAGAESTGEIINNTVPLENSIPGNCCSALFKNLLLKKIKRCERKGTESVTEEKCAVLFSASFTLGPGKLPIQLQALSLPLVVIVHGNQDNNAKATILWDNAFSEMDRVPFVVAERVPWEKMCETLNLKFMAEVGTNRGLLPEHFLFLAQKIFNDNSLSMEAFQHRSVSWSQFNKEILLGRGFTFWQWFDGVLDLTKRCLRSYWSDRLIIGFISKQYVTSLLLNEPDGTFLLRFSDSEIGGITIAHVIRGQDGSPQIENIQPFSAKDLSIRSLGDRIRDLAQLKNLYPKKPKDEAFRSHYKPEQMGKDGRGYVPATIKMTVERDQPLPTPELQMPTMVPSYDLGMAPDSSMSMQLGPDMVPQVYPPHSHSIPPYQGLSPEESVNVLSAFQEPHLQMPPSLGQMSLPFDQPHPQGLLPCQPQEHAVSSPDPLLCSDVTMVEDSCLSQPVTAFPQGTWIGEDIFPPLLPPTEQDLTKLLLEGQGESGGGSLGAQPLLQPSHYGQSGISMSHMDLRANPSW
Outline: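 Luminescence from HiBiT-STAT6 complementing stably expressed LgBiT in HeLa clone 4.14 reports remaining STAT6 protein. Cells (5000/well) exposed to compound for 4-24 h at 37° C; read 0.5 h after Nano-Glo addition. 100% degradation window set with 50 μM terfenadine; percent degradation plotted against concentration.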

[2] = system: Eotaxin-3 release in human whole blood stimulated with IL-4; assay: Human Whole Blood Eotaxin-3 Assay (IL-4 stimulated eotaxin-3 release); type: cell-based; conditions: IL-4 stimulation, 48 h, values given for compounds with >80% Emax, geometric mean
Outline: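 Eotaxin-3 (CCL26) release measured by MSD kit in plasma supernatant after 48 h IL-4 stimulation ([…]) of human whole blood. Compounds added in triplicate 4-fold dilutions 2 h before stimulation; 0.5% DMSO final, 37° C, 5% CO2.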

Compound	DC50 [1]	EC50 [2]
Cc1cc(C(=O)N2CCC(CN3CCN(Cc4cc5c(cc4F)n([C@H]4CCC(=O)NC4=O)c(=O)n5C)CC3)CC2)cc(F)c1C1=CCN([C@@H](C)c2cc3c(-n4ccc5c(c4=O)CCN5)ccnc3n2C)CC1 (single isomer, unassigned) [Example 3u75]	0.6 nM	1 nM
CNc1cc(=O)n(-c2ccnc3c2cc(CN2CCC(c4c(F)cc(C(=O)N5CCC(CN6CCN(Cc7ccc8c(c7)C(C)(C)C(=O)N8[C@H]7CCC(=O)NC7=O)CC6)CC5)cc4F)CC2)n3C)cc1F (single isomer, unassigned) [Example 3u58]	7.6 nM	12.6 nM
Cc1cc(C(=O)N2CCC(CN3CCN(Cc4cc5c(cc4F)n(C4CCC(=O)NC4=O)c(=O)n5C4CC4)CC3)CC2)cc(F)c1C1=CCN([C@@H](C)c2cc3c(-n4ccc5c(c4=O)CCN5)ccnc3n2C)CC1 (stereo partly drawn) [Example 3u146, 3-(3-cyclopropyl-6-fluoro-5-((4-((1-(3-fluoro-5-methyl-4-(1-((S)-1-(1-methyl-4-(4-oxo-1,2,3,4-tetrahydro-5H-pyrrolo[3,2-c]pyridin-5-yl)-1H-pyrrolo[2,3-b]pyridin-2-yl)ethyl)-1,2,3,6-tetrahydropyridin-4-yl)benzoyl)piperidin-4-yl)methyl)piperazin-1-yl)methyl)-2-oxo-2,3-dihydro-1H-benzo[d]imidazol-1-yl)piperidine-2,6-dione]	1.7 nM	1.4 nM
CNc1ccn(-c2ccnc3c2cc([C@H](C)N2CCC(c4ccc(C(=O)N5CCC(CN6CCN(Cc7ccc8c(c7)C(C)(C)C(=O)N8C7CCC(=O)NC7=O)C[C@@H]6C)CC5)cc4)CC2)n3C)c(=O)c1 (stereo partly drawn) [Example 3u187, 3-(3,3-dimethyl-5-(((S)-3-methyl-4-((1-(4-(1-((S)-1-(1-methyl-4-(4-(methylamino)-2-oxopyridin-1 (2H)-yl)-1H-pyrrolo[2,3-b]pyridin-2-yl)ethyl)piperidin-4-yl)benzoyl)piperidin-4-yl)-methyl)piperazin-1-yl)methyl)-2-oxoindolin-1-yl)piperidine-2,6-dione]	3.1 nM	4.2 nM

Other lines, results leading:

DC50 [1]	EC50 [2]	Compound
1.4 nM	3.2 nM	CNc1ccn(-c2ccnc3c2cc([C@H](C)N2CC=C(c4c(C)cc(C(=O)N(C)C5CCC(N6CCN(Cc7ccc8c(c7)n(C)c(=O)n8C7CCC(=O)NC7=O)CC6)CC5)cc4F)CC2)n3C)c(=O)c1 (stereo partly drawn) [Example 3u238, N-(4-(4-((1-(2,6-dioxopiperidin-3-yl)-3-methyl-2-oxo-2,3-dihydro-1H-benzo[d]-imidazol-5-yl)methyl)piperazin-1-yl)cyclohexyl)-3-fluoro-N,5-dimethyl-4-(1-((S)-1-(1-methyl-4-(4-(methylamino)-2-oxopyridin-1 (2H)-yl)-1H-pyrrolo[2,3-b]pyridin-2-yl)ethyl)-1,2,3,6-tetrahydropyridin-4-yl)benzamide]
0.6 nM	1.4 nM	CNc1ccn(-c2ccnc3c2cc([C@H](C)N2CCC(c4c(C)cc(C(=O)N(C)c5ccc(C6CCN(Cc7ccc8c(c7)n(C)c(=O)n8C7CCC(=O)NC7=O)CC6)cc5)cc4F)CC2)n3C)c(=O)c1 (stereo partly drawn) [Example 3u249, N-(4-(1-((1-(2,6-dioxopiperidin-3-yl)-3-methyl-2-oxo-2,3-dihydro-1H-benzo[d]-imidazol-5-yl)methyl)piperidin-4-yl)phenyl)-3-fluoro-N,5-dimethyl-4-(1-((S)-1-(1-methyl-4-(4-(methyl-amino)-2-oxopyridin-1 (2H)-yl)-1H-pyrrolo[2,3-b]pyridin-2-yl)ethyl)piperidin-4-yl)benzamide]

— US20250320206A1, “STAT6 DEGRADERS” (Gilead Sciences, Inc., priority 2024, published 2025)
